# Measured values reported in article PMC4067310, “From Pan-Reactive KV7 Channel Opener to Subtype Selective Opener/Inhibitor by Addition of a Methyl Group” (PLoS ONE, 2014).
# Like-named read-outs stand apart in the source and are kept apart here.
# What was measured:
# [1] = test system: human MDR1 (ABCB1, P-glycoprotein); assay: Bidirectional permeability in MDR1-MDCK cells; assay type: in vitro ADME; settings: dog, MDCK-MDR1, 150-min incubation at 37°C
# Protocol: (§1) The bidirectional permeability (Papp) of SMB-1 was examined in an MDCK cell system expressing human MDR1 [ABCB1, P-glycoprotein (P-gp)] as described previously. Permeation of the test compound from apical (A) to basal (B) direction or B to A direction was determined in triplicate over a 150-min incubation at 37°C. The efflux ratio was calculated as the ratio between Papp (B to A) and Papp (A to B). Free fraction of SMB-1 was determined using a standard equilibrium dialysis methodology with freshly isolated rat brain homogenate or plasma. Equilibrium dialysis was performed by incubating at 37°C for 5 h in triplicates.
# [2] = test system: MDCK cell system expressing human MDR1 [ABCB1, P-glycoprotein (P-gp)]; assay: Bidirectional permeability in MDR1-MDCK cells; assay type: in vitro ADME; settings: judged from the efflux ratio in MDR1-MDCK cells
# Protocol: as §1
# KV7.2-L275V = target: T1, KV7.2-L275V (Homo sapiens, UniProt O43526, L275V); assay: Two-electrode voltage-clamp of mutant KV7.2-L275V in Xenopus laevis oocytes; assay type: cell-based; settings: 10 µM SMB-1, +50 mV, n = 4; read-out: current amplitude, % of control
# T1 construct: expressed in transfected cells; host or cells: Xenopus laevis oocytes injected with cRNA (pGEM-HE vector)
# T1 sequence (O43526 whole entry L275V): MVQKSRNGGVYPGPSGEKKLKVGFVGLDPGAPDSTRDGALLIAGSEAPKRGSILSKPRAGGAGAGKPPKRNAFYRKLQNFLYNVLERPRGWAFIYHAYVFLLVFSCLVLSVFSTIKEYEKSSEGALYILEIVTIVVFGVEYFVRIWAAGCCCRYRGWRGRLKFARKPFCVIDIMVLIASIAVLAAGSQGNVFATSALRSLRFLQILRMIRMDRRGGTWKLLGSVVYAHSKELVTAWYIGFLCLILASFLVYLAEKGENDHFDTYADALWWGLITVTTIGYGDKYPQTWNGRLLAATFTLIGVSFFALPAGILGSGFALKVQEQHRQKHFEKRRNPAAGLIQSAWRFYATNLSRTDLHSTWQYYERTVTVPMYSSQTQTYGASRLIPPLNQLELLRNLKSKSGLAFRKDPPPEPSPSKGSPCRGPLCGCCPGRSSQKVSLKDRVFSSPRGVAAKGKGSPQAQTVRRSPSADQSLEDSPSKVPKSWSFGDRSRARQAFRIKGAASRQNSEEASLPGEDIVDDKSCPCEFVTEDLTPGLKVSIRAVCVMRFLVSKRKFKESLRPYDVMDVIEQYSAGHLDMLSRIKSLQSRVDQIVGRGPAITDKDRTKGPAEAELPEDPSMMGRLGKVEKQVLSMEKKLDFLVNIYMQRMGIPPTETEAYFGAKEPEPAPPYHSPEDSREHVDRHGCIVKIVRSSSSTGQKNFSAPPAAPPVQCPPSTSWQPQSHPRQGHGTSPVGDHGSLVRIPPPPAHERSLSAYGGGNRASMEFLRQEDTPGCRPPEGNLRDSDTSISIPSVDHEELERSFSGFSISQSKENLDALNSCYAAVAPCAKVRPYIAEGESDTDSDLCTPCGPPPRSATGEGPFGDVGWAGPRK
# Protocol: (§2) Point mutations were introduced using mutated oligonucleotide extension (PfuTurbo Polymerase, Stratagene, La Jolla, CA, USA) from a plasmid template harboring the cDNA of interest, digested with DpnI (Fermentas, St. Leon-Roth, Germany) and transformed into E.coli XL1 Blue cells. The construct was verified by complete DNA sequencing of the cDNA insert. cRNA was prepared from linearized human wild-type (WT) and mutant KV7 channels in the pGEM-HE vector using the T7 m-Message Machine kit (Ambion, Austin, TX, USA) according to the manufacturer's instructions.
# Extraction of Xenopus laevis oocytes and injection of cRNA was performed as described previously. Oocytes were kept in Modified Barth's Saline (in mM: 88 NaCl, 1 KCl, 2.4 NaHCO3, 0.41 CaCl2, 0.82 MgSO4, 0.3 Ca(NO3)2, 15 HEPES, pH 7.4 supplemented with 100 U/mL penicillin and 100 µg/mL streptomycin) at 18°C, and currents were recorded after 2-7 days. […]
# KV7 currents in Xenopus laevis oocytes were recorded using two-electrode voltage-clamp at room temperature in Ringer buffer (in mM: 115 NaCl, 2.5 KCl, 1.8 CaCl2, 0.1 MgCl2, 10 HEPES, pH 7.4) as described previously. Data was acquired using pCLAMP 10.2 software (Molecular Devices, CA, USA) and analyzed using pCLAMP 10.2 and GraphPad Prism 4.0 (GraphPad Software Inc., CA, USA). […]
# [3] = Brain and plasma exposure in rats after subcutaneous administration; assay type: in vivo; settings: male, Sprague-Dawley, sc, rat, 20 mg/kg s.c.; for concentration at 30 min / concentration at 120 min: n = 3, mean ± S.E.M
# Protocol: Brain and plasma exposure of SMB-1 was evaluated in male Sprague-Dawley rats (225–250 g, Charles River Lab., UK). SMB-1 was administered subcutaneously in solution at a dose of 20 mg/kg in 25% solutol (dose volume 5 ml/kg) and exposure was assessed after 30 and 120 min (n = 3). Under isoflurane anesthesia, cardiac blood was obtained in EDTA-coated tubes and centrifuged for 10 min at 4°C, after which plasma was harvested. While still under anesthesia, the animal was decapitated, the brain was removed and brain homogenate was prepared by homogenizing the whole brain with 70% acetonitrile (1∶4 v/v) followed by centrifugation and collection of the supernatant. Concentrations of SMB-1 were determined using turboflow chromatography (dual column, focus mode; Thermo Fisher Scientific, Waltham, MA) followed by tandem mass spectrometry detection (Sciex API-3000 MS; Applied Biosystems, Foster City, CA). The limit of detection was 1 ng/ml in plasma and 5 ng/g in brain.
# KV7.2-W236L = target: T2, KV7.2-W236L (Homo sapiens, UniProt O43526, W236L); assay: Two-electrode voltage-clamp of mutant KV7.2-W236L in Xenopus laevis oocytes; assay type: cell-based
# T2 construct: expressed in transfected cells; host or cells: Xenopus laevis oocytes injected with cRNA (pGEM-HE vector)
# T2 sequence (O43526 whole entry W236L): as the sequence (O43526 whole entry L275V) above, with W236L, V275L counted along it
# Protocol: as §2
# Extraction of Xenopus laevis oocytes and injection of cRNA was performed as described previously. Oocytes were kept in Modified Barth's Saline (in mM: 88 NaCl, 1 KCl, 2.4 NaHCO3, 0.41 CaCl2, 0.82 MgSO4, 0.3 Ca(NO3)2, 15 HEPES, pH 7.4 supplemented with 100 U/mL penicillin and 100 µg/mL streptomycin) at 18°C, and currents were recorded after 2-7 days. The care of Xenopus laevis and the oocyte extraction procedure were performed according to national guidelines and approved by the Danish Animal Experiments Inspectorate.
# KV7 currents in Xenopus laevis oocytes were recorded using two-electrode voltage-clamp at room temperature in Ringer buffer (in mM: 115 NaCl, 2.5 KCl, 1.8 CaCl2, 0.1 MgCl2, 10 HEPES, pH 7.4) as described previously. Data was acquired using pCLAMP 10.2 software (Molecular Devices, CA, USA) and analyzed using pCLAMP 10.2 and GraphPad Prism 4.0 (GraphPad Software Inc., CA, USA). Currents were elicited from a holding potential of −80 mV by 5 s steps to potentials between −100 and +50 mV in 10 mV increments, followed by a 2 s step to −120 mV.
# SMB-1 was dissolved in dimethyl sulfoxide (DMSO) to obtain a concentrated stock solution. On the day of experiments the stock solution was thawed and diluted in Ringer buffer to the final concentrations. A concentration of 10 µM SMB-1 was used unless indicated otherwise. The final DMSO concentration never exceeded 0.1%.
# Current – voltage (I–V) relationship curves were generated by normalizing the steady-state peak current measured at potentials between −100 and +50 mV to the current measured at +50 mV in control recordings and plotting the values against the test potential.
# The voltage-dependence of activation was determined from tail current analysis using the current measured immediately after the transient capacitive current after stepping to −120 mV from potentials between −100 mV and +50 mV. Data was normalized to extend from 0–1 and the tail current-voltage relationship was fitted to the Boltzmann equation: [drawing 1] (Equation\;1) where I max is the maximum tail current, I min is the minimum tail current, V0.5 is the potential for half maximal activation and k is the slope factor. A V0.5 was calculated for each individual experiment and statistical significance was estimated by paired two-tailed Student's t-test.
# Activation kinetics for KV7.2 and KV7.2-W236L was determined by fitting the traces recorded at potentials between −40 and +40 mV to a double exponential function: [drawing 2] (Equation\;2) where I(t) is the current at time t, Ifast and Islow are the current amplitudes at infinite times, and τfast and τslow are the time constants of the fast and slow components, respectively.
# For investigation of deactivation kinetics the tail current traces recorded at −120 mV when stepping from the channels' respective ∼V0.5 were fitted to a single exponential function (Eq. 3).
# [4] = brain, read-out: Brain total concentration
# [5] = plasma, read-out: Plasma total concentration
structure (smiles),measurement,setting,value
"C[C@@H](c1ccc2c(c1)N(CC1CC1)CCO2)N(C)C(=O)/C=C/c1ccccc1F [SMB-1, (E)-N-[(S)-1-(4-Cyclopropylmethyl-3,4-dihydro-2H-1,4-benzoxazin-6-yl)-ethyl]-3-(2-fluoro-phenyl)-N-methyl-acrylamide]",Papp at 150 min,"[1]; triplicate, read-out: membrane permeability (Papp)",2.5 ± 0.3 ×10⁻⁶ cm/s
same,efflux ratio at 150 min,"[1]; read-out: efflux ratio, Papp (B to A) / Papp (A to B)",0.7
same,substrate for the efflux transporter P-gp,[2],not identified as a substrate
same,remaining activity at 10 µM,KV7.2-L275V,90.4 ± 4.1%
same,concentration at 30 min,[3]; [4],0.55 ± 0.04 µM
same,concentration at 120 min,[3]; [4],0.44 ± 0.07 µM
same,Kp at 2 h,"[3]; brain/plasma, 30 and 120 min, read-out: brain/plasma partition coefficient",0.04 to 0.07
same,concentration at 30 min,[3]; [5],14 ± 1.5 µM
same,concentration at 120 min,[3]; [5],6.4 ± 0.7 µM
same,effect on τact_fast,KV7.2-W236L; 10 µM,no significant effect
same,remaining activity at 10 µM,"KV7.2-W236L; 10 µM SMB-1, +50 mV, n = 6, read-out: current amplitude, % of control",68.8 ± 3.9%
same,effect on τact_slow,"KV7.2-W236L; 10 µM, at potentials above −20 mV",significantly increased
same,"τdeact, deactivation time constant in presence of compound","KV7.2-W236L; 10 µM, control 23.3±2.9 ms, n = 6, p<0.05",27.0 ± 3.0 ms
same,"V0.5, voltage-dependence of activation in presence of compound","KV7.2-W236L; 10 µM, control −27.1±2.4 mV, n = 4, p = 0.2",−15.0±10.1 mV
